From patent US4861774A, “Method of treating tumors using tetracyclo compounds” (priority 1984, dated 1989)
Values after ≈ are worked out from the molar mass of the structure shown.

Tests used:
[1] = system: Escherichia coli NIHJ JC-2; assay: Antimicrobial activity, serial broth dilution (Test 2), Escherichia coli; format: cell-based; details: NIHJJC2, overnight incubation at 37° C.
Experimental: (§1) Antimicrobial activity of the FR-900482 substance against some bacteria was determined by a serial broth dilution method in bouillon media for bacteria. Minimum inhibitory concentrations (MIC) were expressed in terms of μg/ml after overnight incubation at 37° C.

Ehrlich carcinoma = Ehrlich carcinoma in mice (Test 6); format: in vivo, mice (ICR); details: 3.2 mg/kg i.p., days 1, 5 and 9; median survival time
Description: Ehrlich carcinoma (1×10^6 cells), maintained i.p. by serial passage in female ICR mice, implanted i.p. to female ICR mice on day 0, and the test compounds or vehicle were given i.p. to the mice once a day on days 1, 5 and 9.
(§2) Ten mice were used for each test group and twenty mice were used for each vehicle-treated control group.
(§3) Drug efficacy against the ascitic tumors is expressed as percentage of the median survival time of the test group to that of the control group. [formula]

[2] = system: Pseudomonas aeruginosa NCTC-10490; assay: Antimicrobial activity, serial broth dilution (Test 2), Pseudomonas aeruginosa; format: cell-based; details: NCTC10490, overnight incubation at 37° C.
Experimental: as §1

[3] = Existence as mixture or single component by NMR spectra or silica gel TLC with chromatoscanner; format: physicochemical
[4] = Acute toxicity in ddY mice (Test 3); details: mouse, in vivo
[5] = system: Bacillus subtilis ATCC 6633; assay: Antimicrobial activity, serial broth dilution (Test 2), Bacillus subtilis; format: cell-based; details: ATCC6633, overnight incubation at 37° C.
Experimental: as §1

B16 Melanoma = B16 Melanoma in mice (Test 5); format: in vivo, mice (BDF1); details: 10.0 mg/kg i.p., days 1-9
Experimental: B16 Melanoma (1:10 brei, 0.5 ml), maintained s.c. by serial passage in female C57BL/6 mice, was implanted i.p. to female BDF1 mice on day 0, and the test compounds or vehicle were given i.p. to the mice once a day on days 1-9.
Ten mice were used for each test group, and twenty mice were used for each vehicle-treated control group.
Drug efficacy against the ascitic tumors is expressed as percentage of the median (mean) survival time of the test group to that of the control group. [formula] .circle.2 Results

MM46 Mammary carcinoma = MM46 Mammary carcinoma in mice (Test 6); format: in vivo, mice (C3 H/HeN); details: 3.2 mg/kg i.p., days 1, 5 and 9; median survival time
Description: MM46 Mammary carcinoma (1×10^6 cells), maintained i.p. by serial passage in female C3 H/HeN mice, was implanted i.p. to female C3 H/HeN mice on day 0, and the test compounds or vehicle were given i.p. to the mice once a day on days 1, 5 and 9.
as §2, §3

EL4 Lymphoma = EL4 Lymphoma in mice (Test 6); format: in vivo, mice (BDF1); details: 10.0 mg/kg i.p., days 1, 5 and 9; median survival time
Description: EL4 Lymphoma (1×10^6 cells), maintained i.p. by serial passage in female C57BL/6 mice, was implanted i.p. to female BDF1 mice on day 0, and the test compounds or vehicle were given i.p. to the mice once a day on days 1, 5 and 9.
as §2, §3

[6] = system: Human LC-6-JCK lung carcinoma; assay: Human LC-6-JCK lung carcinoma in nude mice (Test 10); format: in vivo, human (in BALB/c nu/nu mice); details: 10.0 mg/kg i.v., days 12, 16 and 20; evaluation day 28
Experimental: Human LC-6-JCK lung or SC-6-JCK stomach (each fragment, 2×2×2 mm), maintained s.c. by serial passage in male BALB/c nu/nu mice, was implanted s.c. to male BALB/c nu/nu mice on day 0, and the test compounds were given i.v. to the mice once a day on days 12, 16 and 20.
Tumor weight was calculated as follows: (Tumor length and width were measured by caliper.)
Tumor weight (mg)=1/2×a×b^2, where a represents length and b represents width (mm).
Tumor weights (initial) and (last) were calculated on the first injection day (just before dosing) and on day 28 (the last evaluation day), respectively.
Five mice were used for each test group and four or five mice were used for each vehicle-treated control.
Drug efficacy was expressed as percentage of mean tumor weight of the test group to that of the control group. [formula]

AMC60 Fibrosarcoma = assay: in vivo rat ascitic tumor model, AMC60 Fibrosarcoma (Test 8); design: species or system rats (ACI/N); details: 3.2 mg/kg i.p., days 1, 5 and 9; median survival time
Description: (§4) AMC60 Fibrosarcoma (1×10^6 cells), maintained i.p. by serial passage in female ACI/N rats, was implanted i.p. to female ACI/N rats on day 0, and the test compounds or vehicle were given i.p. to the rats once a day on days 1, 5 and 9. Seven rats were used for each test group or vehicle-treated control group.
as §3

[7] = system: Lymphocytic leukemia P388; assay: Antitumor activity against lymphocytic leukemia P388 in mice (Test 1); format: in vivo, mice (BDF1); details: for T/C: mean survival time treated/control
Experimental: The antitumor activity of FR-900482 substance was determined in experimental tumor system in mice.
Lymphocytic leukemia P388 was implanted intraperitoneally into BDF1 mice at an inoculum size of 1×10^6 cells per mouse. Twenty-four hours after the implantation of tumor cells, graded doses of the FR-900482 substance were administered to mice intraperitoneally. Treatments were once a day on day 1, 2, 3 and 4 after the tumor inoculation. Control animals received intraperitoneal doses of physiological saline solution. The injection volume was 0.2 ml in all experiments. Six mice were used for each experimental group.
Antitumor activity was evaluated by the mean survival time of a group of mice and also expressed by the T/C % value (mean survival time of treated group/mean survival time of control group, ×100).

AH130 Hepatoma = assay: in vivo rat ascitic tumor model, AH130 Hepatoma (Test 8); design: species or system rats (Donryu); details: 1.0 mg/kg i.p., days 1, 5 and 9; median survival time
Description: as §4, with “AH130 Hepatoma” for “AMC60 Fibrosarcoma”, “Donryu” for “ACI/N”, “Ten” for “Seven”
as §3

Which MIC [1] does the source give for `NC(=O)OCC1c2c(O)cc(C=O)cc2N2CC3NC3C1(O)O2` (stereo not shown) [FR-900482 substance, 4-Formyl-6,9-dihydroxy-14-oxa-1,11-diazatetracyclo[7.4.1.0^2,7.0^10,12]tetradeca-2,4,6-trien-8-ylmethyl carbamate] here?
Its MIC is 50 µg/mL (≈ 156 µM).

What about the T/C (Ehrlich carcinoma) of the same compound?
Its T/C is > 270%.

What about the MIC [2] of the same compound?
The MIC was 25 µg/mL (≈ 77.8 µM).

And the “existence as mixture or single component” value ([3]; around neutral condition)?
The value was “mixture of two components”.

What about the “existence as mixture or single component” value ([3]; around pH 1 condition) of the same compound?
Its value is “single component”.

And the LD50 ([4]; ip, intraperitoneal injection)?
Its LD50 is 32 mg/kg.

What about the LD50 ([4]; intravenous injection) of the same compound?
Its LD50 is 32 mg/kg.

What about the MIC [5] of the same compound?
Its MIC is 50 µg/mL (≈ 156 µM).

And the T/C (B16 Melanoma)?
The T/C was 350%.

What about the T/C (MM46 Mammary carcinoma) of the same compound?
Its T/C is > 300%.

And the T/C (EL4 Lymphoma)?
Its T/C is 169%.

And the Solubility (Solubility; acetone)?
The Solubility was “Insoluble”.

And the Solubility (Solubility; chloroform)?
The Solubility was “Insoluble”.

And the Solubility (Solubility; ethyl acetate)?
The Solubility was “Insoluble”.

And the Solubility (Solubility; methanol)?
Its Solubility is “Soluble”.

What about the Solubility (Solubility; water) of the same compound?
The Solubility was “Soluble”.

And the “1-T"/C"” value [6]?
Its value is 100%.

What about the T/C (AMC60 Fibrosarcoma) of the same compound?
The T/C was > 333%.

What about the “Mean Survival time” value ([7]; 1.0 mg/kg i.p., days 1-4) of the same compound?
The value was 13.0 days.

What about the T/C ([7]; 1.0 mg/kg i.p., days 1-4) of the same compound?
The T/C was 118%.

What about the “Mean Survival time” value ([7]; 3.2 mg/kg i.p., days 1-4) of the same compound?
The value was 14.0 days.

What about the T/C ([7]; 3.2 mg/kg i.p., days 1-4) of the same compound?
Its T/C is 127%.

What about the “Mean Survival time” value ([7]; 5.6 mg/kg i.p., days 1-4) of the same compound?
Its value is 16.0 days.

What about the T/C ([7]; 5.6 mg/kg i.p., days 1-4) of the same compound?
The T/C was 145%.

What about the “Mean Survival time” value ([7]; 10 mg/kg i.p., days 1-4) of the same compound?
Its value is 24.5 days.

And the T/C ([7]; 10 mg/kg i.p., days 1-4)?
The T/C was 223%.

And the “Mean Survival time” value ([7]; 18 mg/kg i.p., days 1-4)?
The value was 29.0 days.

And the T/C ([7]; 18 mg/kg i.p., days 1-4)?
The T/C was 264%.

And the “increase in life span in mice” value ([7]; doses between 3.2-18 mg/kg i.p.)?
The value was “significant increase in life span”.

And the “activity against the leukemia P388” value ([7]; i.p., days 1-4)?
The value was “quite active”.

What about the T/C (AH130 Hepatoma) of the same compound?
Its T/C is > 429%.
